From patent US20240174647A1 (NEURON23, INC., priority 2022, published 2024)

Biological target: wt human LRRK2, catalytic site (Homo sapiens (Human), UniProt Q5S007)
Assay: TR-FRET LanthaScreen Tb Kinase Activity Assay (LRRK2 kinase inhibition)
Format: biochemical
Settings: 2 nM wt human LRRK2, 400 nM fluorescein-ERM (LRRKtide) peptide, 38 μM ATP, 120 minutes at room temperature
Procedure: The compounds in Table 1 were tested for their inhibitory effect on LRRK2 kinase according to the following procedures.
The protocol for basic TR-FRET LanthaScreen Tb Kinase Activity Assay inhibitor studies were as follows. LanthaScreen Kinase Activity Assays (ThermoFisher/USA) to evaluate inhibitors were performed by addition of 100 nL of test compound in corresponding DMSO dilutions/5 μL of kinase/fluorescein-ERM(LRRKtide) peptide mixture, 5 μL of ATP into 384 well small volume plates. After incubation for 120 minutes at room temperature, the detection reagents containing Tb-anti-pLRRKtide antibody were added to monitor phosphrylation level of peptide. Then, after 60 min minutes incubation at room temperature plates were read in Envision. Data analysis of emission ratios was according to LanthaScreen Tb Kinase Activity Assay protocol.
Kinase and assay components were adjusted to final concentrations according to the kit protocol. For LRRK2: 2 nM wt human LRRK2, catalytic site, catalytic site (ThermoFisher/USA), 400 nM peptide, 38 μM ATP in 1× Kinase Buffer A.
Basic protocol for TR-FRET LanthaScreen Tb Kinase Activity Assay inhibitor studies involved two steps: • Enzymatic step: Addition of 100 nL of test compound in corresponding DMSO dilutions, 5 μL of kinase/substrate mixture, 5 μL of ATP into 384 well small volume plates. Incubation for 120 minutes at room temperature. • Detection step: Addition of 10 μL EDTA & antibody, read plate after 60 minutes. Data analysis of emission ratios according to KinEASE assay protocol.
Kinase and assay components were adjusted to final concentrations according to the kit protocol.
In the table below, activity is provided as follows: +++=IC50 less than 50 nM; ++=IC50 between 50 nM and 200 nM; +=IC50>=200 nM

Chain of wt human LRRK2, catalytic site (Q5S007 1879-2138): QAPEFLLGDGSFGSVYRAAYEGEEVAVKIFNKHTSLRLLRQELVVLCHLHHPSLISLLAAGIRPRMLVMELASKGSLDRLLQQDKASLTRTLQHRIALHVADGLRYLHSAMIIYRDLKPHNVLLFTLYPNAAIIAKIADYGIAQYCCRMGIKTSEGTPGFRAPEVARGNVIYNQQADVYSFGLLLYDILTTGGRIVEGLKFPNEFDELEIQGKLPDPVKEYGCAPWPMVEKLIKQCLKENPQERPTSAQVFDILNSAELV

Compound | IC50 [µM]
CCNc1nc(Nc2cccc3c2cnn3C)ncc1C(F)(F)F [Example 69, N4-ethyl-N2-(1-methyl-1H-indazol-4-yl)-5-(trifluoromethyl)pyrimidine-2,4-diamine] | < 0.05
CCNc1nc(Nc2cccc3c2cnn3C)ncc1Cl [Example 70, 5-chloro-N4-ethyl-N2-(1-methyl-1H-indazol-4-yl)pyrimidine-2,4-diamine] | < 0.05
Cn1ncc2c(Nc3ncc(Cl)c(NC4CC4)n3)cccc21 [Example 71, 5-chloro-N4-cyclopropyl-N2-(1-methyl-1H-indazol-4-yl)pyrimidine-2,4-diamine] | < 0.05
CNc1nc(Nc2ccc3[nH]ncc3c2)ncc1C(F)(F)F [Example 72, N2-(1H-indazol-5-yl)-N4-methyl-5-(trifluoromethyl)pyrimidine-2,4-diamine] | < 0.05
CNc1nc(Nc2ccc3c(cnn3C)c2)ncc1C(F)(F)F [Example 73, N4-methyl-N2-(1-methyl-1H-indazol-5-yl)-5-(trifluoromethyl)pyrimidine-2,4-diamine] | < 0.05
CNc1nc(Nc2ccc3nn(C)cc3c2)ncc1C(F)(F)F [Example 74, N4-methyl-N2-(2-methyl-2H-indazol-5-yl)-5-(trifluoromethyl)pyrimidine-2,4-diamine] | < 0.05
CNc1nc(Nc2cccc3cn[nH]c23)ncc1C(F)(F)F [Example 75, N2-(1H-indazol-7-yl)-N4-methyl-5-(trifluoromethyl)pyrimidine-2,4-diamine] | 0.05 to 0.2
CNc1nc(Nc2cccc3cnn(C)c23)ncc1C(F)(F)F [Example 76, N4-methyl-N2-(1-methyl-1-indazol-7-yl)-5-(trifluoromethyl)pyrimidine-2,4-diamine] | ≥ 0.2
CNc1nc(Nc2cccc3c2cnn3CCC(=O)N2CCOCC2)ncc1C(F)(F)F [Example 77, 3-(4-((4-(methylamino)-5-(trifluoromethyl)pyrimidin-2-yl)amino)-1H-indazol-1-yl)-1-morpholinopropan-1-one] | < 0.05
O=S(=O)(C1CC1)n1ncc2c(Nc3ncc(C(F)(F)F)c(NC4CC4)n3)cccc21 [Example 78, N4-cyclopropyl-N2-(1-(cyclopropylsulfonyl)-1H-indazol-4-yl)-5-(trifluoromethyl)pyrimidine-2,4-diamine] | < 0.05
CNc1nc(Nc2cccc3c2cnn3C)ncc1Cl [Example 79, 5-chloro-N4-methyl-N2-(1-methyl-1H-indazol-4-yl)pyrimidine-2,4-diamine] | < 0.05
CNc1nc(Nc2ccc(C(F)(F)F)c3c2cnn3CC#N)ncc1C(F)(F)F [Example 80, 2-(4-((4-(methylamino)-5-(trifluoromethyl)pyrimidin-2-yl)amino)-7-(trifluoromethyl)-1H-indazol-1-yl)acetonitrile] | < 0.05
CNc1nc(Nc2ccc(C3=CCN(C)CC3)c3c2cnn3C)ncc1C(F)(F)F [Example 81, N4-methyl-N2-(1-methyl-7-(1-methyl-1,2,3,6-tetrahydropyridin-4-yl)-1H-indazol-4-yl)-5-(trifluoromethyl)pyrimidine-2,4-diamine] | < 0.05
CNc1nc(Nc2ccc(C3CCN(C)CC3)c3c2cnn3C)ncc1C(F)(F)F [Example 82, N4-methyl-N2-(1-methyl-7-(1-methylpiperidin-4-yl)-1H-indazol-4-yl)-5-(trifluoromethyl)pyrimidine-2,4-diamine] | < 0.05
CNc1nc(Nc2ccc(C3=CCOCC3)c3c2cnn3CC#N)ncc1C(F)(F)F [Example 83, 2-(7-(3,6-dihydro-2H-pyran-4-yl)-4-((4-(methylamino)-5-(trifluoromethyl)pyrimidin-2-yl)amino)-1H-indazol-1-yl)acetonitrile] | < 0.05
CNc1nc(Nc2ccc(OC(F)(F)F)c3c2cnn3CC#N)ncc1C(F)(F)F [Example 84, 2-(4-((4-(methylamino)-5-(trifluoromethyl)pyrimidin-2-yl)amino)-7-(trifluoromethoxy)-1H-indazol-1-yl)acetonitrile] | < 0.05
CNc1nc(Nc2ccc(F)c3c2cnn3CC#N)ncc1C(F)(F)F [Example 85, 2-(7-fluoro-4-((4-(methylamino)-5-(trifluoromethyl)pyrimidin-2-yl)amino)-1H-indazol-1-yl)acetonitrile] | < 0.05
CNc1nc(Nc2ccc(C3=CCOCC3)c3c2cnn3C)ncc1C(F)(F)F [Example 86, N2-(7-(3,6-dihydro-2H-pyran-4-yl)-1-methyl-11H-indazol-4-yl)-N4-methyl-5-(trifluoromethyl)pyrimidine-2,4-diamine] | < 0.05
CNc1nc(Nc2ccc(C3=CCN(C)CC3)c3c2cnn3CC#N)ncc1C(F)(F)F [Example 87, 2-(7-(1-methyl-1,2,3,6-tetrahydropyridin-4-yl)-4-((4-(methylamino)-5-(trifluoromethyl)pyrimidin-2-yl)amino)-11H-indazol-1-yl)acetonitrile] | < 0.05
CNc1nc(Nc2ccc(C3CCOCC3)c3c2cnn3C)ncc1C(F)(F)F [Example 88, N4-methyl-N2-(1-methyl-7-(tetrahydro-2H-pyran-4-yl)-1H-indazol-4-yl)-5-(trifluoromethyl)pyrimidine-2,4-diamine] | < 0.05
CNc1nc(Nc2ccc(C3CCOCC3)c3c2cnn3CC#N)ncc1C(F)(F)F [Example 89, 2-(4-((4-(methylamino)-5-(trifluoromethyl)pyrimidin-2-yl)amino)-7-(tetrahydro-2H-pyran-4-yl)-1H-indazol-1-yl)acetonitrile] | < 0.05
CNc1nc(Nc2cc(C(F)(F)F)cc3c2cnn3CC#N)ncc1C(F)(F)F [Example 90, 2-(4-((4-(methylamino)-5-(trifluoromethyl)pyrimidin-2-yl)amino)-6-(trifluoromethyl)-1H-indazol-1-yl)acetonitrile] | < 0.05
CNc1nc(Nc2cc(F)cc3c2cnn3CC#N)ncc1C(F)(F)F [Example 91, 2-(6-fluoro-4-((4-(methylamino)-5-(trifluoromethyl)pyrimidin-2-yl)amino)-1H-indazol-1-yl)acetonitrile] | < 0.05
CNc1nc(Nc2cc(Cl)cc3c2cnn3CC#N)ncc1C(F)(F)F [Example 92, 2-(6-chloro-4-((4-(methylamino)-5-(trifluoromethyl)pyrimidin-2-yl)amino)-1H-indazol-1-yl)acetonitrile] | < 0.05
N#CCn1ncc2c(Nc3ncc(C(F)(F)F)c(NC4CC4)n3)cccc21 [Example 93] | < 0.05
CNc1nc(Nc2cccc3c2cnn3CC(F)F)ncc1C(F)(F)F [Example 94, N2-(1-(2,2-difluoroethyl)-1H-indazol-4-yl)-N4-methyl-5-(trifluoromethyl)pyrimidine-2,4-diamine] | < 0.05
N#CCn1ncc2c(Nc3ncc(C(F)(F)F)c(NC4CCCC4)n3)cccc21 [Example 95, 2-(4-((4-(cyclopentylamino)-5-(trifluoromethyl)pyrimidin-2-yl)amino)-1H-indazol-1-yl)acetonitrile] | < 0.05
N#CCn1ncc2c(Nc3ncc(C(F)(F)F)c(NC4CC(F)(F)C4)n3)cccc21 [Example 96, 2-(4-((4-((3,3-difluorocyclobutyl)amino)-5-(trifluoromethyl)pyrimidin-2-yl)amino)-1H-indazol-1-yl)acetonitrile] | < 0.05
CNc1nc(Nc2cccc3c2cnn3CC(C)(C)O)ncc1C(F)(F)F [Example 97, 2-methyl-1-(4-((4-(methylamino)-5-(trifluoromethyl)pyrimidin-2-yl)amino)-1H-indazol-1-yl)propan-2-ol] | < 0.05
